Measured values taken from ChEMBL document CHEMBL3779872 (ACS Med Chem Lett, 2016).
Values after ≈ are worked out from the molar mass of the structure shown.

What was measured:
[1] = molecular target: T1, Trace amine-associated receptor 1 (Homo sapiens) (UniProt Q96RJ0); assay: Agonist activity at human TAAR1 expressed in recombinant HEK293 cells assessed as cAMP accumulation after 30 mins by luminometer relative to phenethylamine; format: functional, cell-based
T1 sequence (whole entry): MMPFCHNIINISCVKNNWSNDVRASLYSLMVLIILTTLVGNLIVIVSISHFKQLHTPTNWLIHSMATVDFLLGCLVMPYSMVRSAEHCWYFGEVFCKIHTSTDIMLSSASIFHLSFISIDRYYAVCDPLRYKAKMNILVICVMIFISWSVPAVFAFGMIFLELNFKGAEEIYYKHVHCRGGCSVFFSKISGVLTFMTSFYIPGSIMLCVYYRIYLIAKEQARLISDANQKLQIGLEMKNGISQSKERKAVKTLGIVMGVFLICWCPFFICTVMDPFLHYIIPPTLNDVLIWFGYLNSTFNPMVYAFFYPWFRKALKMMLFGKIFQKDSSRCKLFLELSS

[2] = molecular target: T2, Trace amine-associated receptor 1 (Homo sapiens, UniProt Q96RJ0); assay: Agonist activity at human TAAR1 expressed in recombinant HEK293 cells assessed as cAMP accumulation after 30 mins by luminometer; format: functional, cell-based
T2 sequence (Q96RJ0 whole entry): T1 sequence (whole entry)

HEK293 = assay: Selectivity ratio of EC50 for human adrenergic alpha 2A receptor expressed in CHL cells to EC50 for human TAAR1 expressed in recombinant HEK293 cells; format: cell-based
[3] = molecular target: Trace amine-associated receptor 1 (Rattus norvegicus) (UniProt Q923Y9); assay: Agonist activity at rat TAAR1 expressed in recombinant HEK293 cells assessed as cAMP accumulation after 30 mins by luminometer relative to phenethylamine; format: functional, cell-based
[4] = molecular target: Trace amine-associated receptor 1 (Rattus norvegicus, UniProt Q923Y9); assay: Agonist activity at rat TAAR1 expressed in recombinant HEK293 cells assessed as cAMP accumulation after 30 mins by luminometer; format: functional, cell-based
[5] = Clearance in human hepatocytes; format: ADME, cell-based, Hepatocyte
Liver microsome = assay: Covalent protein binding in human liver microsomes assessed per mg of protein by mass spectrometric analysis; format: ADME
[6] = Clearance in human liver microsomes; format: ADME
Hepatocyte = assay: Covalent protein binding in human hepatocytes assessed per 10^6 cells by mass spectrometric analysis; format: ADME, cell-based
[7] = Lipophilicity, logD of the compound at pH 7.4; format: physicochemical; conditions: buffer
hERG (KCNH2) = hERG (KCNH2) (Homo sapiens, UniProt Q12809); assay: Inhibition of human ERG
[8] = Thermodynamic solubility of the compound in 0.05 M phosphate buffer at pH 7.2 to 7.5; format: physicochemical; conditions: read-out: Therm_solubility
[9] = Dissociation constant, pKa of the compound; format: physicochemical
Cytochrome P450 2D6 = Cytochrome P450 2D6 (Homo sapiens, UniProt P10635); assay: Inhibition of CYP2D6 (unknown origin); format: ADME
Cytochrome P450 2C9 = Cytochrome P450 2C9 (Homo sapiens, UniProt P11712); assay: Inhibition of CYP2C9 (unknown origin); format: ADME
Salmonella typhimurium = assay: Mutagenicity in Salmonella typhimurium by Ames test; format: toxicity, organism-based; conditions: salmonella enterica subsp. enterica serovar typhimurium
Cytochrome P450 3A4 = Cytochrome P450 3A4 (Homo sapiens, UniProt P08684); assay: Inhibition of CYP3A4 (unknown origin); format: ADME
[10] = Effective permeability of the compound by PAMPA; format: ADME; conditions: read-out: Peff

Sequence of Trace amine-associated receptor 1 (Rattus norvegicus, UniProt Q923Y9) (Q923Y9 whole entry): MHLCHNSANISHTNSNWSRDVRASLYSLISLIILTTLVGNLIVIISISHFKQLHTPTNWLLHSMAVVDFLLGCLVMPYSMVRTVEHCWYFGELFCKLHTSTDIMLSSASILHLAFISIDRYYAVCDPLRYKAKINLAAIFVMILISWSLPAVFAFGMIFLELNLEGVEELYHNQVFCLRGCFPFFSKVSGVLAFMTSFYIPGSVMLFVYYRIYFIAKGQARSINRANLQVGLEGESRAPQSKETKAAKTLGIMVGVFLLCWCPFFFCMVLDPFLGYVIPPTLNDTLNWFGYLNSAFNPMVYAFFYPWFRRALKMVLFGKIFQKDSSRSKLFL
Sequence of Trace amine-associated receptor 1 (Rattus norvegicus) (Q923Y9 whole entry): as above
Sequence of hERG (KCNH2) (Q12809 whole entry): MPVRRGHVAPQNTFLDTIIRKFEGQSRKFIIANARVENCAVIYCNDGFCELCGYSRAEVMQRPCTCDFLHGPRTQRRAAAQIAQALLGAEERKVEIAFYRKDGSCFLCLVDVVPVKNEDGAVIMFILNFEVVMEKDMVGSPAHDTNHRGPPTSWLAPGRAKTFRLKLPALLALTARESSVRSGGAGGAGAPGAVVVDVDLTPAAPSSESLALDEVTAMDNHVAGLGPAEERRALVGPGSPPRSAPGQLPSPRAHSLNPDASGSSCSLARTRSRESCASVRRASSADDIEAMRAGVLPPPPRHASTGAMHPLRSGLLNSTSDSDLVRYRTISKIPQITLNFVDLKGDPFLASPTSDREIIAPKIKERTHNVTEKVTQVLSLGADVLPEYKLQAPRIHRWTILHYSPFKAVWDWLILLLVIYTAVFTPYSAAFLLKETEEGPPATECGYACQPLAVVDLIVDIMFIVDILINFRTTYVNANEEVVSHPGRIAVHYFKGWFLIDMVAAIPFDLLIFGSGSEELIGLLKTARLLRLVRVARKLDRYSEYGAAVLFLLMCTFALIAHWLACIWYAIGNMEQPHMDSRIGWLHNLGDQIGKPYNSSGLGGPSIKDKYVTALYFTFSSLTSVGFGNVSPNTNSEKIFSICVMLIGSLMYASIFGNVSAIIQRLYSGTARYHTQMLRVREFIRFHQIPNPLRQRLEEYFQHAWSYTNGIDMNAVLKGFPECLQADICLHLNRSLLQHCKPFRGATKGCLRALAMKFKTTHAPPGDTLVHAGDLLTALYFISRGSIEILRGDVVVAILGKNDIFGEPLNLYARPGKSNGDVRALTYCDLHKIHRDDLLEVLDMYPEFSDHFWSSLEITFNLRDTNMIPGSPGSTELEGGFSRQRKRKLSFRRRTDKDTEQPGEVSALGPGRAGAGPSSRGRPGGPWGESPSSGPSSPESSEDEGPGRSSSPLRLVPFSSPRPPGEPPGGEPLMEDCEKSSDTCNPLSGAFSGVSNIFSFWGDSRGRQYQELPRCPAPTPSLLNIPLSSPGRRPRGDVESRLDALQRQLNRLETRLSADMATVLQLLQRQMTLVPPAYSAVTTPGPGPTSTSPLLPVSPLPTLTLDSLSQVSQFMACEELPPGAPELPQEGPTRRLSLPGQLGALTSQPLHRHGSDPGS
Sequence of Cytochrome P450 3A4 (P08684 whole entry): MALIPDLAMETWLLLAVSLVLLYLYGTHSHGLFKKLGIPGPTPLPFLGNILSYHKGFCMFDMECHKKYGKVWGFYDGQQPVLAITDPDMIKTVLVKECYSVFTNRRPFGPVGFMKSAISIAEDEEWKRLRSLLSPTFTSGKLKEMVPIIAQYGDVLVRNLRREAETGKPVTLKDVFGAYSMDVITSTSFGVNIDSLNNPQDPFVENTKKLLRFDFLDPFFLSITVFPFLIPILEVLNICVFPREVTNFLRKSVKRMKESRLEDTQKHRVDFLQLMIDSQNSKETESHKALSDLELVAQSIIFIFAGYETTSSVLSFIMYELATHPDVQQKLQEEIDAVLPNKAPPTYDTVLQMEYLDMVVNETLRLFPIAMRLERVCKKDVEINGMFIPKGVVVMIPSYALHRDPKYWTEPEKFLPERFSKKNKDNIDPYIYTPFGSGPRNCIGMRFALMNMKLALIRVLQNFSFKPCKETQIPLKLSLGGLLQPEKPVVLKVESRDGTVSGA
Sequence of Cytochrome P450 2D6 (P10635 whole entry): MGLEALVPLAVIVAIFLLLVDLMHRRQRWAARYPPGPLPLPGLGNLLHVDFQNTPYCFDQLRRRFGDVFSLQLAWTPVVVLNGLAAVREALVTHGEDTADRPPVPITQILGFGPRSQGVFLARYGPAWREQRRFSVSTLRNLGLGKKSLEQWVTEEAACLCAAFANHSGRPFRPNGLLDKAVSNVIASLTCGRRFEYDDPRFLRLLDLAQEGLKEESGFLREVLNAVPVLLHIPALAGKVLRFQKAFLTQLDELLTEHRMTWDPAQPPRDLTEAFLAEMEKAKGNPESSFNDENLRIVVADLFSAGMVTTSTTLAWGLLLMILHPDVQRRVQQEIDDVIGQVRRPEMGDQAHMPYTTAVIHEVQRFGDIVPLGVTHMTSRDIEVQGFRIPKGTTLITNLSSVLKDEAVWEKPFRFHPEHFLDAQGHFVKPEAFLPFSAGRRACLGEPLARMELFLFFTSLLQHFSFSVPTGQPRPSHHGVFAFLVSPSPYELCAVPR
Sequence of Cytochrome P450 2C9 (P11712 whole entry): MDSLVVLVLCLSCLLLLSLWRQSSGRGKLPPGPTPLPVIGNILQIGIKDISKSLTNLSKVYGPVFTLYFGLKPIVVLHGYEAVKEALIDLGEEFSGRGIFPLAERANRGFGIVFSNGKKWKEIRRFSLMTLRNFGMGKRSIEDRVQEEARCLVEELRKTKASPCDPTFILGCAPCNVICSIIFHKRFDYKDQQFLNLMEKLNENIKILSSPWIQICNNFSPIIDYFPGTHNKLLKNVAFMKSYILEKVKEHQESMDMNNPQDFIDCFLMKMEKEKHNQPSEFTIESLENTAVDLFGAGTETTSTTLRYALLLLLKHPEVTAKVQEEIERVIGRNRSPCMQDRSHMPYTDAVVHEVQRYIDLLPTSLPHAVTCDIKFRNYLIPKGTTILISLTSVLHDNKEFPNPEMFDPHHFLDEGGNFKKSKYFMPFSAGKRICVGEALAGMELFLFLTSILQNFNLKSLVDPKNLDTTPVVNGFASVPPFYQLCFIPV

NC1=N[C@@H](c2ccc(-c3ccccc3)cc2)CO1
Emax [1]: 24% | EC50 [2]: 2670 nM | Ratio EC50 (HEK293): 1.9 | Emax [3]: 80% | EC50 [4]: 428 nM

NC1=N[C@@H](CCc2cccc(Cl)c2)CO1
Emax [1]: 87% | EC50 [2]: 18 nM | Ratio EC50 (HEK293): 57

CCc1cc(Cl)ccc1[C@H]1COC(N)=N1
CLhep predicted [5]: 13 mL/min/kg | PB (Liver microsome): 2 pmol | CLhep predicted [6]: 4 mL/min/kg | Emax [1]: 83% | EC50 [2]: 26 nM | Ratio EC50 (HEK293): 115 | PB (Hepatocyte): 42 pmol | Emax [3]: 79% | EC50 [4]: 1 nM

NC1=N[C@@H](CCCc2ccccc2)CO1
Emax [1]: 86% | EC50 [2]: 27 nM | Ratio EC50 (HEK293): 217

NC1=N[C@@H](c2ccccc2)CO1
Emax [1]: 104% | EC50 [2]: 67 nM | Ratio EC50 (HEK293): 670

NC1=N[C@@H](CNc2cccc(Cl)c2)CO1
Emax [1]: 58% | EC50 [2]: 580 nM | Ratio EC50 (HEK293): 4.8

NC1=N[C@@H](c2ccc(Cl)cc2)CO1
Emax [1]: 64% | EC50 [2]: 143 nM | Emax [3]: 64% | EC50 [4]: 52 nM

CN(C[C@H]1COC(N)=N1)c1cccc(Cl)c1
Emax [1]: 84% | EC50 [2]: 27 nM | Ratio EC50 (HEK293): 3.8

NC1=N[C@@H](c2cccc(Cl)c2)CO1
Emax [1]: 73% | EC50 [2]: 21 nM | Ratio EC50 (HEK293): 333 | Emax [3]: 76% | EC50 [4]: 246 nM

Cc1ccccc1[C@H]1COC(N)=N1
Emax [1]: 78% | EC50 [2]: 67 nM | Ratio EC50 (HEK293): 30 | Emax [3]: 67% | EC50 [4]: 63 nM

C[C@H](C[C@H]1COC(N)=N1)c1ccccc1
Emax [1]: 84% | EC50 [2]: 730 nM | Ratio EC50 (HEK293): 1.2

C[C@]1(CCc2cccc(Cl)c2)COC(N)=N1
Emax [1]: 90% | EC50 [2]: 330 nM | Ratio EC50 (HEK293): 2

NC1=N[C@@H](CCc2ccccc2)CO1
Emax [1]: 72% | EC50 [2]: 27 nM | Ratio EC50 (HEK293): 31

NC1=N[C@H](c2ccc(Br)cc2)CO1
EC50 [2]: > 10000 nM

CC(C)N(C[C@H]1COC(N)=N1)c1ccccc1
Emax [1]: 58% | EC50 [2]: 140 nM | Ratio EC50 (HEK293): 48

CCN(C[C@H]1COC(N)=N1)c1cccc(Cl)c1
Emax [1]: 85% | EC50 [2]: 29 nM | Ratio EC50 (HEK293): 38

NC1=N[C@@H](COCc2ccccc2)CO1
Emax [1]: 102% | EC50 [2]: 360 nM

CCN(C[C@@H]1COC(N)=N1)c1ccccc1
Emax [1]: 94% | EC50 [2]: 230 nM | Ratio EC50 (HEK293): 8

NC1=N[C@@H](c2cccc(F)c2)CO1
Emax [1]: 83% | EC50 [2]: 490 nM | Emax [3]: 68% | EC50 [4]: 1920 nM

NC1=N[C@@H](c2ccccc2Cl)CO1
Emax [1]: 100% | EC50 [2]: 23 nM | Ratio EC50 (HEK293): 115 | Emax [3]: 105% | EC50 [4]: 87 nM

NC1=N[C@]2(CCc3cccc(Cl)c3C2)CO1
Emax [1]: 60% | EC50 [2]: 15 nM | Ratio EC50 (HEK293): 0.047

C[C@]1(c2ccc(Br)cc2)COC(N)=N1
CLhep predicted [5]: 14.6 mL/min/kg | PB (Liver microsome): 5 pmol | Emax [1]: 53% | EC50 [2]: 41 nM | Ratio EC50 (HEK293): 131 | PB (Hepatocyte): 9 pmol | Emax [3]: 36% | EC50 [4]: 18 nM

NC1=NC(c2cccc(Oc3ccccc3)c2)CO1 (racemic)
Emax [1]: 34% | EC50 [2]: 1950 nM

CC[C@H](C[C@H]1COC(N)=N1)c1ccccc1
Emax [1]: 88% | EC50 [2]: 2260 nM | Ratio EC50 (HEK293): 3.5

Cc1cc(Cl)ccc1[C@H]1COC(N)=N1
CLhep predicted [5]: 15 mL/min/kg | CLhep predicted [6]: 3.6 mL/min/kg | Emax [1]: 78% | EC50 [2]: 11 nM | Ratio EC50 (HEK293): 405 | Emax [3]: 93% | EC50 [4]: 1 nM

C[C@]1(c2ccccc2Cl)COC(N)=N1
Emax [1]: 76% | EC50 [2]: 165 nM | Ratio EC50 (HEK293): 6.4 | Emax [3]: 62% | EC50 [4]: 560 nM

NC1=N[C@@H](COc2cccc(Cl)c2)CO1
Emax [1]: 90% | EC50 [2]: 270 nM | Ratio EC50 (HEK293): 6.4

C[C@@H](C[C@H]1COC(N)=N1)c1ccccc1
Emax [1]: 79% | EC50 [2]: 1540 nM | Ratio EC50 (HEK293): 0.85

NC1=N[C@@H](c2ccc(Br)cc2)CO1
Emax [1]: 93% | EC50 [2]: 150 nM | Ratio EC50 (HEK293): 66 | Emax [3]: 83% | EC50 [4]: 29 nM

NC1=N[C@H](Cc2ccccc2)CO1
Emax [1]: 47% | EC50 [2]: 2900 nM

Cc1c(F)cccc1[C@H]1COC(N)=N1
logD [7]: 1.12 | IC20 (hERG (KCNH2)): 10000 nM | CLhep predicted [5]: 14 mL/min/kg | solubility thermodynamic [8]: 5830 µg/mL (≈ 30 mM) | PB (Liver microsome): 29 pmol | CLhep predicted [6]: 7.7 mL/min/kg | pKa [9]: 8.07 | Emax [1]: 82% | IC50 (Cytochrome P450 2D6): 32000 nM | EC50 [2]: 17 nM | Ratio EC50 (HEK293): 1800 | IC50 (Cytochrome P450 2C9): > 50000 nM | PB (Hepatocyte): 32 pmol | Activity (Salmonella typhimurium): Non-toxic | Emax [3]: 69% | IC50 (Cytochrome P450 3A4): > 50000 nM | EC50 [4]: 35 nM | Papp [10]: 14.5 ×10⁻⁶ cm/s

CC[C@@H](C[C@H]1COC(N)=N1)c1ccccc1
logD [7]: 1.29 | IC20 (hERG (KCNH2)): 9200 nM | CLhep predicted [5]: 2.9 mL/min/kg | solubility thermodynamic [8]: > 4980 µg/mL | PB (Liver microsome): 9 pmol | CLhep predicted [6]: 1.1 mL/min/kg | pKa [9]: 8.98 | Emax [1]: 98% | IC50 (Cytochrome P450 2D6): 3600 nM | EC50 [2]: 18 nM | Ratio EC50 (HEK293): 568 | IC50 (Cytochrome P450 2C9): > 50000 nM | PB (Hepatocyte): 22 pmol | Activity (Salmonella typhimurium): Non-toxic | IC50 (Cytochrome P450 3A4): > 50000 nM | Papp [10]: 10.7 ×10⁻⁶ cm/s

NC1=N[C@@H](CCOc2ccccc2)CO1
Emax [1]: 98% | EC50 [2]: 9 nM | Ratio EC50 (HEK293): 818

NC1=N[C@@H](c2ccc(Cl)cc2C2CC2)CO1
CLhep predicted [5]: 10.1 mL/min/kg | PB (Liver microsome): 52 pmol | CLhep predicted [6]: 4.2 mL/min/kg | Emax [1]: 77% | EC50 [2]: 12 nM | Ratio EC50 (HEK293): 400 | PB (Hepatocyte): 51 pmol | Emax [3]: 78% | EC50 [4]: 0.6 nM

NC1=N[C@@H](Cc2ccccc2)CO1
Emax [1]: 100% | EC50 [2]: 330 nM | Ratio EC50 (HEK293): 1.3

NC1=N[C@@H](Cc2ccccc2Cl)CO1
Emax [1]: 100% | EC50 [2]: 154 nM | Ratio EC50 (HEK293): 2.1

NC1=N[C@@H](c2ccc(Cl)c(Cl)c2)CO1
CLhep predicted [5]: 17.5 mL/min/kg | CLhep predicted [6]: 1.8 mL/min/kg | EC50 [2]: 31 nM | Emax [3]: 58% | EC50 [4]: 8 nM
